Experimental data as given in patent publication US20100267825A1, “TREATMENT OF SKIN DAMAGE” (Eukarion, Inc., priority 2009, published 2010).

Assays:
[1] = In vitro catalase activity (colorimetric peroxidase/ABTS-coupled assay); assay type: biochemical; conditions: relative to C7 (EUK-8) set at 100%, 10 μM compound, 100 μM hydrogen peroxide
Method: The catalase activity of SOD/Catalase mimetics used in the process was determined as previously described by Doctrow et al., 2002, J. Med. Chem. 45, 4549-4558. Briefly, catalase activity was measured by incubating the sample compound with hydrogen peroxide and determining the amount of hydrogen peroxide remaining after a period of time using a colorimetric peroxidase-coupled assay method. 10 μM sample compound and 100 μM hydrogen peroxide in 40 mM sodium phosphate pH 7.4 were incubated together at ambient temperature in a multi-well plate. After the desired reaction period had elapsed, 20 μl of peroxidase/ABTS reagent was added (peroxidase/ABTS reagent contained […] of 50 mM Na phosphate, pH 7.4, 1 mg horseradish peroxidase (1310 U/mg) and 1.6 g ABTS). After five minutes, absorbance at 750 nm was determined.
The amount of hydrogen peroxide remaining was calculated based on a standard curve. To compare rates of catalase reaction, the amount of hydrogen peroxide consumed at 20 minutes was determined.
(rate obtained for SOD/Catalase mimetic)/(rate obtained for C7 (EUK-8))×100%

[2] = test system: radiation-induced apoptosis; assay: Protection against radiation-induced apoptosis / anti-apoptotic activity; assay type: cell-based
[3] = Cytotoxicity; assay type: cell-based
[4] = salen-metal complexes, pH 7.4, hydrogen peroxide consumed at 20 minutes
[5] = orally bioavailable metalloporphyrin derivatives, pH 7.4, 20 minutes

CC(=O)[O-].COc1cc(Br)c([O-])c(C=Nc2ccccc2N=Cc2cc(OC)cc(Br)c2[O-])c1.[Mn+3] [C76]
Relative Catalase Rate [1, 4]: 427%

CC(=O)[O-].[Mn+3].[O-]c1c2cccc1OCCOCCOCCOc1cccc(c1[O-])C=Nc1ccccc1N=C2 [C82]
Relative Catalase Rate [1, 4]: 345%

CC(=O)[O-].[Mn+3].[O-]c1ccccc1CNCCNCc1ccccc1[O-] [C83]
Relative Catalase Rate [1, 4]: 42%

COc1cccc(C=Nc2ccccc2N=Cc2cccc(OC)c2[O-])c1[O-].[Cl-].[Mn+3] [C81]
Relative Catalase Rate [1, 4]: 493%

[Cl-].[Mn+3].[O-]c1ccccc1CNCCNCc1ccccc1[O-] [C84]
Relative Catalase Rate [1, 4]: 31%

C1=Cc2nc1cc1ccc([n-]1)c(C1CCCCC1)c1nc(cc3ccc([n-]3)c2C2CCCCC2)C=C1.[Cl-].[Mn+3] [EUK-452, {[{(Porphine-5,15-diyl)bis[cyclohexyl-diyl]}] (2-)-N^21, N^22, N^23, N^24} manganese(III) chloride]
protective effect against radiation-induced apoptosis (in words) [2]: protective effect against radiation-induced apoptosis | Relative Catalase Rate [1, 5]: 105%

CC(=O)[O-].CCc1c2nc(c(CC)c3ccc([n-]3)c(CC)c3nc(c(CC)c4ccc1[n-]4)C=C3)C=C2.[Mn+3] [EUK-425, (5,10,15,20-Tetraethylporphyrinato) manganese (III) acetate]
Relative Catalase Rate [1, 5]: 84%

C1=Cc2nc1cc1ccc([n-]1)c(C1CCOCC1)c1nc(cc3ccc([n-]3)c2C2CCOCC2)C=C1.[Cl-].[Mn+3] [EUK-451, {[{(Porphine-5,15-diyl)bis[4-Tetrahydropyrano-diyl]}](2-)-N^21, N^22, N^23, N^24} manganese(III) chloride]
anti-apoptotic activity (in words) [2]: high | protective effect against radiation-induced apoptosis (in words) [2]: protective effect against radiation-induced apoptosis | cytotoxicity (in words) [3]: low | Relative Catalase Rate [1, 5]: 140%

CC(=O)[O-].COc1cccc(C=NCCN=Cc2cccc(OC)c2[O-])c1[O-].[Mn+3] [C32]
Relative Catalase Rate [1, 4]: 188%

COc1ccc(C=NCCN=Cc2ccc(OC)cc2[O-])c([O-])c1.[Cl-].[Mn+3] [C34]
Relative Catalase Rate [1, 4]: 46%

CC(=NCCN=C(C)c1ccccc1[O-])c1ccccc1[O-].CC(=O)[O-].[Mn+3] [C85]
Relative Catalase Rate [1, 4]: 31%

CC(=O)[O-].COc1cc([O-])c(C=NCCN=Cc2c([O-])cc(OC)cc2OC)c(OC)c1.[Mn+3] [C35]
Relative Catalase Rate [1, 4]: 25%

CC(=O)[O-].COc1ccc(C=NCCN=Cc2ccc(OC)cc2[O-])c([O-])c1.[Mn+3] [C33]
Relative Catalase Rate [1, 4]: 38%

CC(=O)[O-].[Mn+3].[O-]c1c(F)cccc1C=NCCN=Cc1cccc(F)c1[O-] [C36]
Relative Catalase Rate [1, 4]: 128%

[Cl-].[Mn+3].[O-]c1ccccc1C=NCCN=Cc1ccccc1[O-] [C7 (EUK-8)]
Relative Catalase Rate [1, 4]: 100%

C1=Cc2nc1cc1ccc([n-]1)c(Cc1ccccc1)c1nc(cc3ccc([n-]3)c2Cc2ccccc2)C=C1.CC(=O)[O-].[Mn+3] [EUK-423, {[{(Porphine-5,15-diyl)bis[benzyl-diyl]}] (2-)-N^21, N^22, N^23, N^24} manganese(III) acetate]
protective effect against radiation-induced apoptosis (in words) [2]: protective effect against radiation-induced apoptosis | Relative Catalase Rate [1, 5]: 56%

CC(=O)[O-].COc1ccc(-c2c3nc(cc4ccc([n-]4)c(-c4ccc(OC)cc4)c4nc(cc5ccc2[n-]5)C=C4)C=C3)cc1.[Mn+3] [EUK-450, {[{(Porphine-5,15-diyl)bis[benzene-1,4 diyl (4-methyl-oxy)]}](2-)-N^21, N^22, N^23, N^24} manganese(III) acetate]
protective effect against radiation-induced apoptosis (in words) [2]: protective effect against radiation-induced apoptosis | Relative Catalase Rate [1, 5]: 84%

C1=Cc2nc1cc1ccc([n-]1)c(C1CC1)c1nc(cc3ccc([n-]3)c2C2CC2)C=C1.CC(=O)[O-].[Mn+3] [EUK-418, {[{(Porphine-5,15-diyl)bis[cyclopropyl-diyl]}] (2-)-N^21, N^22, N^23, N^24} manganese(III) acetate]
protective effect against radiation-induced apoptosis (in words) [2]: protective effect against radiation-induced apoptosis | Relative Catalase Rate [1, 5]: 70%

COc1cccc(C=NCCN=Cc2cccc(OC)c2[O-])c1[O-].[Cl-].[Mn+3] [C40 (EUK-134)]
Relative Catalase Rate [1, 4]: 155%

[Cl-].[Mn+3].[O-]c1c(F)cccc1C=NCCN=Cc1cccc(F)c1[O-] [C37]
Relative Catalase Rate [1, 4]: 117%

CC(=O)[O-].[Mn+3].[O-]c1ccccc1C=NCCN=Cc1ccccc1[O-] [C31]
Relative Catalase Rate [1, 4]: 92%
